In publication PMC9165844 (PLoS ONE, 2022):
“Also recorded” adds a separate entry of the source.

How the values were obtained:
astrocytes = assay: Cytotoxic effect by MTT assay on astrocytes; conditions: for Astrocytes viability: control for cytotoxicity effect; for Cytotoxicity in astrocyte cultures: MTT, 12.5-200 μM
Aβ1–42 = target: T1, Aβ1–42 (Homo sapiens, UniProt P05067); assay: Inhibition of Aβ1–42 aggregation by Thioflavin T (ThT) assay; type: biochemical; conditions: compound at 100 μM, 48 h, 37°C, ThT fluorescence; read-out: Percentage of inhibition of Aβ1–42 fibrillation
T1 construct: Aβ of 42 aa residues (Aβ1–42) represents the most amyloidogenic and toxic form; purchased Calbiochem PP69
T1 sequence (P05067 672-713): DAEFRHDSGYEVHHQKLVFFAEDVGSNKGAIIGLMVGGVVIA

AChE = AChE (Electrophorus electricus, UniProt O42275); assay: biochemical; conditions: for Ki: read-out: AChE inhibition constant (Ki)
Chain of AChE (O42275 24-633 limits assumed): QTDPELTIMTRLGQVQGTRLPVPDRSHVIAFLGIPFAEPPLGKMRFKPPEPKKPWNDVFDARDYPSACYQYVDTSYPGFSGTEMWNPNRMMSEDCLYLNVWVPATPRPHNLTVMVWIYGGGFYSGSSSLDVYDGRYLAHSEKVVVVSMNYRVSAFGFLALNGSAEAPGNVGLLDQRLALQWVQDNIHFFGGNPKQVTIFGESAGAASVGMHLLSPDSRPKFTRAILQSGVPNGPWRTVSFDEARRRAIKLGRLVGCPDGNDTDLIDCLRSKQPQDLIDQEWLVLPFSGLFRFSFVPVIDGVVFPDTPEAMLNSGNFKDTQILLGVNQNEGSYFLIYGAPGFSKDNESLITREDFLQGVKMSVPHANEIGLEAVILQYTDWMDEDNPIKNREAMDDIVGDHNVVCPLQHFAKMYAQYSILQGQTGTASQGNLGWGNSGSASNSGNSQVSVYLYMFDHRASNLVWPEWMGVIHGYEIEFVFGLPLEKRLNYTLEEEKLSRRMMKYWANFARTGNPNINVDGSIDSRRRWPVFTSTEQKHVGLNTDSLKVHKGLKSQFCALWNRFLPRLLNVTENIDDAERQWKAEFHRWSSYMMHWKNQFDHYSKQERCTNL

[1] = Solubility in solvents noted for the synthesized compounds; type: physicochemical; conditions: qualitative
BACE 1 = BACE 1 (Homo sapiens, UniProt P56817); assay: Inhibition of BACE 1 activity (FRET kit); conditions: for BACE1 inhibitory activity (in words): FRET
Chain of BACE 1 (P56817 46-501): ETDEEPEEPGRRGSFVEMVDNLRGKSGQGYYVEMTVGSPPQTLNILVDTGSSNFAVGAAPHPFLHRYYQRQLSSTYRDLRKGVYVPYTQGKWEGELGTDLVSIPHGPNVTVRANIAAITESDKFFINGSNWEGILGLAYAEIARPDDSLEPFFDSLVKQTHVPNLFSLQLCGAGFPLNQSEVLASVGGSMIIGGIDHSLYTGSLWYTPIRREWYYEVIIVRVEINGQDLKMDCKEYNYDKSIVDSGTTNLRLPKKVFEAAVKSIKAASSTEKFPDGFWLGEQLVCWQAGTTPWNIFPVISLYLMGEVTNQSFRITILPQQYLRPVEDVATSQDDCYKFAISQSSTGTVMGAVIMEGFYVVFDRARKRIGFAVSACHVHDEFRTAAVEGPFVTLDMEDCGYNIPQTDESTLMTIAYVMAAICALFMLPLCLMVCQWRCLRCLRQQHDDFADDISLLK

NIH3T3 fibroblasts = assay: Cytotoxic effect by MTT assay on NIH3T3 fibroblasts; conditions: 12.5-200 μM
PC12 = assay: Cytotoxic effect by MTT assay on PC12 cells; conditions: 12.5-200 μM

| SMILES | Astrocytes viability (astrocytes; at 100 μM) [%] | Astrocytes viability (astrocytes; at concentrations 1 μM ≤) | inhibition at 100 µM (Aβ1–42) [%] | AChE inhibitory activity (in words) (AChE) | Ki (AChE) [µM] | Solubility (solvents) [1] | BACE1 inhibitory activity (in words) (BACE 1) | Cytotoxicity in fibroblast cultures (NIH3T3 fibroblasts) | IC50 (BACE 1) [µM] | Cytotoxicity in astrocyte cultures (astrocytes) | Cytotoxicity in PC12 cell cultures (PC12) |
| --- | --- | --- | --- | --- | --- | --- | --- | --- | --- | --- | --- |
| [Cl][Cd][Cl] [Cadmium chloride, reference compound] | 25 | above 80% |  |  |  |  |  |  |  |  |  |
| COc1cc(CN)ccc1OCCN1CCCCC1 [Compound F2S4-p, (3-methoxy-4-(2-(piperidin-1-yl)ethoxy)phenyl) methanamine] |  |  | 42.1 | no significant effect; also recorded: did not show inhibitory activity; also recorded: did not show inhibition | > 100 | MetOH, EtOH, water | not possible to determine its IC50 value; also recorded: did not show inhibitory activity; also recorded: did not show inhibition | showed cytotoxic |  |  |  |
| COc1ccc(CN)cc1OCCN1CCCCC1 [Compound F2S4-m, (4-methoxy-3-(2-(piperidin-1-yl)ethoxy)phenyl) methanamine] |  |  | 60.9 | showed inhibitory activity | 0.4 | MetOH, EtOH, Acetone, CHCl3, EtOAc, H2O | showed inhibitory activity | not cytotoxic | 16 | not cytotoxic | not cytotoxic |
| COc1ccc(CN)cc1OCCN1CCCC1 [Compound F3S4-m, (4-methoxy-3-(2-(pyrrolidin-1-yl)ethoxy)phenyl) methanamine] |  |  | 30.5 | showed inhibitory activity | 0.19 | MetOH, EtOH, Acetone | showed inhibitory activity | not cytotoxic | 8.38 | not cytotoxic | not cytotoxic |
